The values below come from patent US20230146675A1, “PYRIMIDO[5,4-d]PYRIMIDINE DERIVATIVES AS ENT INHIBITORS FOR THE TREATMENT OF CANCERS, AND COMBINATION THEREOF WITH ADENOSINE RECEPTOR ANTAGONISTS” (ITEOS BELGIUM SA, priority 2020, published 2023).

What is called IC50 is the concentration that gives 50% inhibition. A lower IC50 goes with higher potency.

The assay deals with T1, human ENT1 (Homo sapiens, UniProt Q99808).
T1 sequence (Q99808 1-456): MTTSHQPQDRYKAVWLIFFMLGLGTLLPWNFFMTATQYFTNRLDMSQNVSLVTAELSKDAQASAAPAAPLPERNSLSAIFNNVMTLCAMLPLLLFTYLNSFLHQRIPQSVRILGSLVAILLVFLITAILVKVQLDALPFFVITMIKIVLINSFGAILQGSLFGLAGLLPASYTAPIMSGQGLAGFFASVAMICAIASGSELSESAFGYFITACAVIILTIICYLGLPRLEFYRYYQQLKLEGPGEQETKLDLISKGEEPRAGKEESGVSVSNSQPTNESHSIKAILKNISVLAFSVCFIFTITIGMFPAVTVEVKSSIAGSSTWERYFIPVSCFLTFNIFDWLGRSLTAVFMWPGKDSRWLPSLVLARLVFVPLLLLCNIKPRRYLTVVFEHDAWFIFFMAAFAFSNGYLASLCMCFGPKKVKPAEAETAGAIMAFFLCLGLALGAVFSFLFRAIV
Kind of assay: ENT1 binding assay (competition with Sahenta-DY647 on JAR cells). Set-up: JAR cells expressing ENT1 were bought from ATCC; host or cells: JAR cells. Particulars: binned IC50. In a few lines: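 JAR cells were incubated with test compounds and the fluorescent ligand Sahenta-DY647 in competition. Plates were washed twice by centrifugation (4 min, 400 rcf, 4 °C). Binding potency was derived from the final fluorescence.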
`COCCN(CCOC)c1nc(N2CCN(c3nccc(OC)n3)CC2)c2nc(N(CCOC)CCOC)nc(N3CCC(OC)CC3)c2n1` [Compound 125, N2,N2,N6,N6-tetrakis(2-methoxyethyl)-4-(4-methoxypiperidin-1-yl)-8-(4-(4-methoxypyrimidin-2-yl)piperazin-1-yl)pyrimido[5,4-d]pyrimidine-2,6-diamine] had an IC50 of 100 to 500 nM.

The compound `COCCN(CCOC)c1nc(N2CCN(c3ncccc3N)CC2)c2nc(N(CCOC)CCOC)nc(N3CCC(OC)CC3)c2n1` [Compound 121, 4-(4-(3-aminopyridin-2-yl)piperazin-1-yl)-N2,N2,N6,N6-tetrakis(2-methoxyethyl)-8-(4-methoxypiperidin-1-yl)pyrimido[5,4-d]pyrimidine-2,6-diamine] gave an IC50 of 500 to 1000 nM. For `COCCN(CCOC)c1nc(N2CCC(OC)CC2)c2nc(N(CC(C)O)CC(C)O)nc(N3CCN(C)C(=O)C3)c2n1` (stereo not shown) [Compound 327, 4-(2-(bis(2-hydroxypropyl)amino)-6-(bis(2-methoxyethyl)amino)-8-(4-methoxypiperidin-1-yl)pyrimido[5,4-d]pyrimidin-4-yl)-1-methylpiperazin-2-one] the value was less than 100 nM; for `COCCN(CCOC)c1nc(N2CCC(OC)CC2)c2nc(N(CCOC)CCOC)nc(NCCc3cnc[nH]3)c2n1` [Compound 95, N4-(2-(1H-imidazol-5-yl)ethyl)-N2,N2,N6,N6-tetrakis(2-methoxyethyl)-8-(4-methoxypiperidin-1-yl)pyrimido[5,4-d]pyrimidine-2,4,6-triamine], 500 to 1000 nM; for `COCCN(CCOC)c1nc(N2CCC(OC)CC2)c2nc(N(CCOC)CCOC)nc(NCC3CCCC3)c2n1` [Compound 55, N4-(cyclopentylmethyl)-N2,N2,N6,N6-tetrakis(2-methoxyethyl)-8-(4-methoxypiperidin-1-yl)pyrimido[5,4-d]pyrimidine-2,4,6-triamine], 100 to 500 nM. For `COCCN(CCOC)c1nc(N2CC[C@H](F)C2)c2nc(N(CCOC)CCOC)nc(N3CCC(OC)CC3)c2n1` [Compound 102, (S)-4-(3-fluoropyrrolidin-1-yl)-N2,N2,N6,N6-tetrakis(2-methoxyethyl)-8-(4-methoxypiperidin-1-yl)pyrimido[5,4-d]pyrimidine-2,6-diamine], the IC50 is less than 100 nM. In the case of `COCCN(CCOC)c1nc(N2CCC(OC)CC2)c2nc(N(CCOC)CCOC)nc(N(C)CCc3ccccn3)c2n1` [Compound 83, N2,N2,N6,N6-tetrakis(2-methoxyethyl)-8-(4-methoxypiperidin-1-yl)-N4-methyl-N4-(2-(pyridin-2-yl)ethyl)pyrimido[5,4-d]pyrimidine-2,4,6-triamine], the IC50 fell in the range of 500 to 1000 nM.

Consider `COCCN(CCOC)c1nc(N2CCN(c3ncn(C)n3)CC2)c2nc(N(CCOC)CCOC)nc(N(C)Cc3cccc(F)c3)c2n1` [Compound 241, N4-(3-fluorobenzyl)-N2,N2,N6,N6-tetrakis(2-methoxyethyl)-N4-methyl-8-(4-(1-methyl-1H-1,2,4-triazol-3-yl)piperazin-1-yl)pyrimido[5,4-d]pyrimidine-2,4,6-triamine], for which the IC50 fell in the range of 100 to 500 nM. The compound `COCCN(CCOC)c1nc(N2CCC(OC)CC2)c2nc(N(CCOC)CCOCCCN3CCOCC3)nc(N3CCC(OC)CC3)c2n1` [Compound 44, N2,N2,N6-tris(2-methoxyethyl)-4,8-bis(4-methoxypiperidin-1-yl)-N6-(2-(3-morpholinopropoxy)ethyl)pyrimido[5,4-d]pyrimidine-2,6-diamine] came in with an IC50 of 500 to 1000 nM.

`COCCN(CCOC)c1nc(N2CC(OC)C2)c2nc(N(CCOC)CCOC)nc(N3CCC(OC)CC3)c2n1` [Compound 86, 4-(3-methoxyazetidin-1-yl)-N2,N2,N6,N6-tetrakis(2-methoxyethyl)-8-(4-methoxypiperidin-1-yl)pyrimido[5,4-d]pyrimidine-2,6-diamine]: the 50% inhibitory concentration (IC50) was in the range of 100 to 500 nM. Under `COCCN(CCOC)c1nc(N2CC(O)(C(F)(F)F)C2)c2nc(N(CCOC)CCOC)nc(N3CCn4ncnc4C3)c2n1` [Compound 193, 1-(2,6-bis(bis(2-methoxyethyl)amino)-8-(5,6-dihydro-[1,2,4]triazolo[1,5-a]pyrazin-7(8H)-yl)pyrimido[5,4-d]pyrimidin-4-yl)-3-(trifluoromethyl)azetidin-3-ol] stands 100 to 500 nM; under `COCCN(CCOC)c1nc(N2CCN(c3ncn(C)n3)CC2)c2nc(N(CCOC)CCOC)nc(NCc3cccc(OC(F)(F)F)c3)c2n1` [Compound 223, N2,N2,N6,N6-tetrakis(2-methoxyethyl)-8-(4-(1-methyl-1H-1,2,4-triazol-3-yl)piperazin-1-yl)-N4-(3-(trifluoromethoxy)benzyl)pyrimido[5,4-d]pyrimidine-2,4,6-triamine], less than 100 nM. The compound `COCCN(CCOC)c1nc(N2CCC(OC)CC2)c2nc(OCc3ccnc(C)c3)nc(N3CCC(OC)CC3)c2n1` [Compound 262, N,N-bis(2-methoxyethyl)-4,8-bis(4-methoxypiperidin-1-yl)-6-((2-methylpyridin-4-yl)methoxy)pyrimido[5,4-d]pyrimidin-2-amine] displayed an IC50 of 100 to 500 nM. For `COCCN(CCOC)c1nc(N2CCC(OC)CC2)c2nc(N(CCOC)CCOC)nc(N3CCC(C#N)CC3)c2n1` [Compound 90, 1-(2,6-bis(bis(2-methoxyethyl)amino)-8-(4-methoxypiperidin-1-yl)pyrimido[5,4-d]pyrimidin-4-yl)piperidine-4-carbonitrile] the value was 100 to 500 nM. Under `COCCN(CCOC)c1nc(N2CCC(S(C)(=O)=O)CC2)c2nc(N(CCOC)CCOC)nc(N3CCC(OC)CC3)c2n1` [Compound 78, N2,N2,N6,N6-tetrakis(2-methoxyethyl)-4-(4-methoxypiperidin-1-yl)-8-(4-(methylsulfonyl)piperidin-1-yl)pyrimido[5,4-d]pyrimidine-2,6-diamine] stands 500 to 1000 nM; under `COCCN(CCOC)c1nc(N2CCC(OC)CC2)c2nc(N(CCOC)CCOC)nc(NCC3CCOCC3)c2n1` [Compound 46, N2,N2,N6,N6-tetrakis(2-methoxyethyl)-8-(4-methoxypiperidin-1-yl)-N4-((tetrahydro-2H-pyran-4-yl)methyl)pyrimido[5,4-d]pyrimidine-2,4,6-triamine], 100 to 500 nM. `COCCN(CCOC)c1nc(N2CC(F)(F)C2)c2nc(N(CCOC)CCOC)nc(N3CCC(OC)CC3)c2n1` [Compound 105, 4-(3,3-difluoroazetidin-1-yl)-N2,N2,N6,N6-tetrakis(2-methoxyethyl)-8-(4-methoxypiperidin-1-yl)pyrimido[5,4-d]pyrimidine-2,6-diamine] gave a half-maximal inhibitory concentration (IC50) of 100 to 500 nM.

On to `COCCN(CCOC)c1nc(N2CCN(c3ncn(C)n3)CC2)c2nc(N(CCOC)CCOC)nc(NCc3cccc(F)c3)c2n1` [Compound 220, N4-(3-fluorobenzyl)-N2,N2,N6,N6-tetrakis(2-methoxyethyl)-8-(4-(1-methyl-1H-1,2,4-triazol-3-yl)piperazin-1-yl)pyrimido[5,4-d]pyrimidine-2,4,6-triamine], for which the IC50 is less than 100 nM.

Turning to `CCCN(CCC)c1nc(N(CCOC)CCOC)nc2c(N3CCC(OC)CC3)nc(N(CCOC)CCOC)nc12` [Compound 165, N2,N2,N6,N6-tetrakis(2-methoxyethyl)-8-(4-methoxypiperidin-1-yl)-N4,N4-dipropylpyrimido[5,4-d]pyrimidine-2,4,6-triamine], the IC50 was less than 100 nM. Under `COCCN(CCOC)c1nc(N2CCN(C)C(=O)C2)c2nc(N(CCOC)CCOC)nc(N(C)C)c2n1` [Compound 320, 4-(2,6-bis(bis(2-methoxyethyl)amino)-8-(dimethylamino)pyrimido[5,4-d]pyrimidin-4-yl)-1-methylpiperazin-2-one] stands 500 to 1000 nM; under `COCCN(CCOC)c1nc(N2CCC(OC)CC2)c2nc(N(CCOC)CCOC)nc(OCc3cncc(C#N)c3)c2n1` [Compound 158, 5-(((2,6-bis(bis(2-methoxyethyl)amino)-8-(4-methoxypiperidin-1-yl)pyrimido[5,4-d]pyrimidin-4-yl)oxy)methyl)nicotinonitrile], 100 to 500 nM. On to `COCCN(CCOC)c1nc(N2CCC(OC)CC2)c2nc(OCc3ccc(C)nc3)nc(N3CCC(OC)CC3)c2n1` [Compound 263, N,N-bis(2-methoxyethyl)-4,8-bis(4-methoxypiperidin-1-yl)-6-((6-methylpyridin-3-yl)methoxy)pyrimido[5,4-d]pyrimidin-2-amine], for which the IC50 is 100 to 500 nM. For `COCCN(CCOC)c1nc(N2CCN(C)C(=O)C2)c2nc(N(CCOC)Cc3ccc(OC)c(OC)c3OC)nc(N3CCC(OC)CC3)c2n1` [Compound 303, 4-(2-(bis(2-methoxyethyl)amino)-6-((2-methoxyethyl)(2,3,4-trimethoxybenzyl)amino)-8-(4-methoxypiperidin-1-yl)pyrimido[5,4-d]pyrimidin-4-yl)-1-methylpiperazin-2-one] the value was less than 100 nM; for `COCCN(CCOC)c1nc(NCc2cccc(C#N)c2)c2nc(N(CCO)CCO)nc(N3CCC(OC)CC3)c2n1` [Compound 325, 3-(((6-(bis(2-hydroxyethyl)amino)-2-(bis(2-methoxyethyl)amino)-8-(4-methoxypiperidin-1-yl)pyrimido[5,4-d]pyrimidin-4-yl)amino)methyl)benzonitrile], less than 100 nM; for `COCCN(CCOC)c1nc(N2CCN(C)C(=O)C2)c2nc(N3CCN(C(=O)OC)CC3)nc(N3CCC(OC)CC3)c2n1` [Compound 284, methyl 4-(6-(bis(2-methoxyethyl)amino)-4-(4-methoxypiperidin-1-yl)-8-(4-methyl-3-oxopiperazin-1-yl)pyrimido[5,4-d]pyrimidin-2-yl)piperazine-1-carboxylate], 500 to 1000 nM.
